Earlier results as cited in US20220226338A1, “Methods of Treating Cancer Using CHK1 Inhibitors” (Sierra Oncology, Inc., priority 2019, published 2022).

Target: T1, Chk1 (Homo sapiens, UniProt O14757)
T1 sequence (O14757 1-476): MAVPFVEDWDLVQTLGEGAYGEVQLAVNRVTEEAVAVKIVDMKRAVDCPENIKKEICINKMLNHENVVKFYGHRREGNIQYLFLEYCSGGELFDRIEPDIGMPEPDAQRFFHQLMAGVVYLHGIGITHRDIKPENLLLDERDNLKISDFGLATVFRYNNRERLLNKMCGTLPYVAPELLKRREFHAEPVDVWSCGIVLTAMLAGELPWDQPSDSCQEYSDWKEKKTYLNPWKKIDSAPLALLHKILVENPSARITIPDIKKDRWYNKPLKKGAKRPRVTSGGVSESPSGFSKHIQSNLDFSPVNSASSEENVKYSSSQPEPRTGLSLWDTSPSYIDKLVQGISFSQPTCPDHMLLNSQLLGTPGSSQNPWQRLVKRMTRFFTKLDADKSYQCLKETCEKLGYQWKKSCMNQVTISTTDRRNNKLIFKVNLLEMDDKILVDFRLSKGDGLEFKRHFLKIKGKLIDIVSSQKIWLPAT
Conditions: previously found; Walton et al. Oncotarget 2016; cited from earlier work

N#Cc1cnc(Nc2cc(NCC3CNCCO3)c(C(F)(F)F)cn2)cn1 (stereo not shown) [SRA737, 5-[[4-[[morpholin-2-yl]methylamino]-5-(trifluoromethyl)-2-pyridyl]amino]pyrazine-2-carbonitrile]
inhibitor of Chk1: potent and selective inhibitor of Chk1 with limited off-target activity against other kinases
